Source: the supplement of paper PMC10307832

Key:
Experiment in all cases: relative viability (nuclei count vs DMSO), 5 days (fraction); higher = more cells survive
NCI-H2009 = tested on: NCI-H2009
How it was run: (§1)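 Each reported value is a median over duplicate plates. It expresses relative viability: treated-well nuclei count divided by vehicle-well nuclei count. Lung cancer cell lines in 1536-well plates were dosed by pin tool a day after seeding, alone with one drug or with a fixed anchor-drug dose plus five library-drug doses (not always all listed) in √10 steps, and nuclei were counted after 5 days.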

NCI-H441 = tested on: NCI-H441
How it was run: as §1

HARA = tested on: HARA
How it was run: as §1

NCI-H1651 = tested on: NCI-H1651
How it was run: as §1

SW 1573 = tested on: SW 1573
How it was run: as §1

LOU-NH91 = tested on: LOU-NH91
How it was run: as §1

NCI-H727 = tested on: NCI-H727
How it was run: as §1

NCI-H23 = tested on: NCI-H23
How it was run: as §1

NCI-H838 = tested on: NCI-H838
How it was run: as §1

NCI-H1975 = tested on: NCI-H1975
How it was run: as §1

LC-2-ad = tested on: LC-2-ad
How it was run: as §1

NCI-H650 = tested on: NCI-H650
How it was run: as §1

UMC-11 = tested on: UMC-11
How it was run: as §1

NCI-H2170 = tested on: NCI-H2170
How it was run: as §1

NCI-H2087 = tested on: NCI-H2087
How it was run: as §1

NCI-H1650 = tested on: NCI-H1650
How it was run: as §1

H3255 = tested on: H3255
How it was run: as §1

NCI-H2228 = tested on: NCI-H2228
How it was run: as §1

SW 900 = tested on: SW 900
How it was run: as §1

NCI-H2085 = tested on: NCI-H2085
How it was run: as §1

EPLC-272H = tested on: EPLC-272H
How it was run: as §1

PC-3 [JPC-3] = tested on: PC-3 [JPC-3]
How it was run: as §1

NCI-H2023 = tested on: NCI-H2023
How it was run: as §1

With `CN1CCN(CCOc2cc(OC3CCOCC3)c3c(Nc4c(Cl)ccc5c4OCO5)ncnc3c2)CC1` [Saracatinib] + Cc1cc(Nc2cc(N3CCN(C)CC3)nc(Sc3ccc(NC(=O)C4CC4)cc3)n2)n[nH]1 [Tozasertib] (partner 0.1 µM) the relative viability (NCI-H2009; first compound 0.02 µM) was 0.655, the relative viability (NCI-H2009; first compound 0.2 µM) was 0.715 and the relative viability (NCI-H2009; first compound 0.6325 µM) was 0.5. It also gave a relative viability (NCI-H2009; first compound 2 µM) of 0.609, a relative viability (NCI-H441; first compound 0.02 µM) of 0.557 and a relative viability (NCI-H441; first compound 0.2 µM) of 0.601. For the same molecule, the relative viability (NCI-H441; first compound 0.6325 µM) was 0.728, the relative viability (NCI-H441; first compound 2 µM) was 0.641 and the relative viability (HARA; first compound 0.02 µM) was 0.118. For the same molecule, the relative viability (HARA; first compound 0.2 µM) was 0.0998, the relative viability (HARA; first compound 0.6325 µM) was 0.0847 and the relative viability (HARA; first compound 2 µM) was 0.0726. It also gave a relative viability (NCI-H1651; first compound 0.02 µM) of 0.71, a relative viability (NCI-H1651; first compound 0.2 µM) of 0.555 and a relative viability (NCI-H1651; first compound 0.6325 µM) of 0.691. For the same molecule, the relative viability (NCI-H1651; first compound 2 µM) was 0.625, the relative viability (SW 1573; first compound 0.02 µM) was 0.142 and the relative viability (SW 1573; first compound 0.2 µM) was 0.207. The relative viability (SW 1573; first compound 0.6325 µM) was 0.189, the relative viability (SW 1573; first compound 2 µM) was 0.188 and the relative viability (LOU-NH91; first compound 0.02 µM) was 0.655. For the same molecule, the relative viability (LOU-NH91; first compound 0.2 µM) was 0.449, the relative viability (LOU-NH91; first compound 0.6325 µM) was 0.476 and the relative viability (LOU-NH91; first compound 2 µM) was 0.42. The relative viability (NCI-H727; first compound 0.02 µM) was 0.618, the relative viability (NCI-H727; first compound 0.2 µM) was 0.506 and the relative viability (NCI-H727; first compound 0.6325 µM) was 0.525. The relative viability (NCI-H727; first compound 2 µM) was 0.454, the relative viability (NCI-H23; first compound 0.02 µM) was 0.743 and the relative viability (NCI-H23; first compound 0.2 µM) was 0.345. It also gave a relative viability (NCI-H23; first compound 0.6325 µM) of 0.426, a relative viability (NCI-H23; first compound 2 µM) of 0.327 and a relative viability (NCI-H838; first compound 0.02 µM) of 0.243. For the same molecule, the relative viability (NCI-H838; first compound 0.2 µM) was 0.241, the relative viability (NCI-H838; first compound 0.6325 µM) was 0.264 and the relative viability (NCI-H838; first compound 2 µM) was 0.246. The relative viability (NCI-H1975; first compound 0.02 µM) was 0.697, the relative viability (NCI-H1975; first compound 0.2 µM) was 0.709 and the relative viability (NCI-H1975; first compound 0.6325 µM) was 0.675. For the same molecule, the relative viability (NCI-H1975; first compound 2 µM) was 0.33, the relative viability (LC-2-ad; first compound 0.02 µM) was 0.39 and the relative viability (LC-2-ad; first compound 0.2 µM) was 0.427. It also gave a relative viability (LC-2-ad; first compound 0.6325 µM) of 0.464, a relative viability (LC-2-ad; first compound 2 µM) of 0.408 and a relative viability (NCI-H650; first compound 0.02 µM) of 0.65. The relative viability (NCI-H650; first compound 0.2 µM) was 0.656, the relative viability (NCI-H650; first compound 0.6325 µM) was 0.701 and the relative viability (NCI-H650; first compound 2 µM) was 0.716. It also gave a relative viability (UMC-11; first compound 0.02 µM) of 0.206, a relative viability (UMC-11; first compound 0.2 µM) of 0.175 and a relative viability (UMC-11; first compound 0.6325 µM) of 0.213. The relative viability (UMC-11; first compound 2 µM) was 0.185, the relative viability (NCI-H2170; first compound 0.02 µM) was 0.736 and the relative viability (NCI-H2170; first compound 0.2 µM) was 0.371. For the same molecule, the relative viability (NCI-H2170; first compound 0.6325 µM) was 0.723, the relative viability (NCI-H2170; first compound 2 µM) was 0.429 and the relative viability (NCI-H2087; first compound 0.02 µM) was 0.224. For the same molecule, the relative viability (NCI-H2087; first compound 0.2 µM) was 0.206, the relative viability (NCI-H2087; first compound 0.6325 µM) was 0.258 and the relative viability (NCI-H2087; first compound 2 µM) was 0.231. It also gave a relative viability (NCI-H1650; first compound 0.02 µM) of 0.435, a relative viability (NCI-H1650; first compound 0.2 µM) of 0.294 and a relative viability (NCI-H1650; first compound 0.6325 µM) of 0.22. It also gave a relative viability (NCI-H1650; first compound 2 µM) of 0.204, a relative viability (H3255; first compound 0.02 µM) of 0.621 and a relative viability (H3255; first compound 0.2 µM) of 0.585. It also gave a relative viability (H3255; first compound 0.6325 µM) of 0.444, a relative viability (H3255; first compound 2 µM) of 0.291 and a relative viability (NCI-H2228; first compound 0.02 µM) of 0.222. The relative viability (NCI-H2228; first compound 0.2 µM) was 0.148, the relative viability (NCI-H2228; first compound 0.6325 µM) was 0.213 and the relative viability (NCI-H2228; first compound 2 µM) was 0.154. The relative viability (SW 900; first compound 0.02 µM) was 0.546, the relative viability (SW 900; first compound 0.2 µM) was 0.533 and the relative viability (SW 900; first compound 0.6325 µM) was 0.645. It also gave a relative viability (SW 900; first compound 2 µM) of 0.532, a relative viability (NCI-H2085; first compound 0.02 µM) of 0.816 and a relative viability (NCI-H2085; first compound 0.2 µM) of 0.676. The relative viability (NCI-H2085; first compound 0.6325 µM) was 0.722, the relative viability (NCI-H2085; first compound 2 µM) was 0.707 and the relative viability (EPLC-272H; first compound 0.02 µM) was 0.278. For the same molecule, the relative viability (EPLC-272H; first compound 0.2 µM) was 0.34, the relative viability (EPLC-272H; first compound 0.6325 µM) was 0.179 and the relative viability (EPLC-272H; first compound 2 µM) was 0.157. The relative viability (PC-3 [JPC-3]; first compound 0.02 µM) was 0.933, the relative viability (PC-3 [JPC-3]; first compound 0.2 µM) was 0.824 and the relative viability (PC-3 [JPC-3]; first compound 0.6325 µM) was 0.834. For the same molecule, the relative viability (PC-3 [JPC-3]; first compound 2 µM) was 0.469, the relative viability (NCI-H2023; first compound 0.02 µM) was 0.314 and the relative viability (NCI-H2023; first compound 0.2 µM) was 0.368. The relative viability (NCI-H2023; first compound 0.6325 µM) was 0.268 and the relative viability (NCI-H2023; first compound 2 µM) was 0.262.
